Measurements from US20230150960A1, “COMPOSITIONS AND METHODS OF USING CYANINE DYES TO TARGET CANCER AND MITOCHONDRIA” (Thomas Jefferson University, priority 2020, published 2023).

Legend:
Assay type in all cases: physicochemical
[1] = Solubility of glycerol-containing formulations (post vortexing, 30 min and overnight at 18° C.); details: compound 2 mg/mL; for solubility at 30 min / solubility / solubility at 30 s: glycerol-containing formulation; for solubility at 30 min / solubility: 18 °C; for solubility at 30 min: after 30 minutes incubation at 18° C.; for solubility at 30 s: post vortexing
Experimental: (§1) Tables 3A, 3B, and 3C describe solubility experiments conducted with the indicated compounds under the listed conditions. Vortexing was conducted using a Denville Vortexer 59 (Denville Scientific Inc.), at maximum speed for 30 seconds. As used herein, the term overnight refers to a period lasting at least about 12-24 hours.

[2] = Solubility of BSA-containing formulations (post vortexing, 30 min and overnight at 18° C.); details: compound 2 mg/mL; for solubility at 30 min / solubility: BSA-containing formulation, 18 °C, aqueous with cosolvent or surfactant or cyclodextrin; for solubility at 30 min: after 30 minutes incubation at 18° C.
Experimental: Vortexing was conducted using a Denville Vortexer 59 (Denville Scientific Inc.), at maximum speed for 30 seconds. As used herein, the term overnight refers to a period lasting at least about 12-24 hours.

[3] = Solubility of sodium deoxycholate-containing formulations (post vortexing, 30 min and overnight at 18° C.); details: compound 2 mg/mL; for solubility at 30 s: post vortexing
Experimental: as §1, with “5A, 5B,” for “3A, 3B,”, “5C” for “3C”

CCN1/C(=C/C=C/c2sc3ccccc3[n+]2CC)Sc2ccccc21 [JAC-B1, 3′,3′-Diethylthiacarbocyanine iodide]
MFG: Solubility of glycerol-containing formulations after overnight incubation at 18° C., 50% ([1]; 50% glycerol, overnight incubation at 18° C.) | Solubility of BSA-containing formulations after overnight incubation at 18° C., 5 mg/mL ([2]; BSA 5 mg/mL, overnight incubation at 18° C.) | Solubility of BSA-containing formulations after overnight incubation at 18° C., 10 mg/mL ([2]; BSA 10 mg/mL, overnight incubation at 18° C.) | Solubility of BSA-containing formulations after overnight incubation at 18° C., 15 mg/mL ([2]; BSA 15 mg/mL, overnight incubation at 18° C.) | Solubility of BSA-containing formulations after overnight incubation at 18° C., 25 mg/mL ([2]; BSA 25 mg/mL, overnight incubation at 18° C.) | Solubility of sodium deoxycholate-containing formulations after 30 min incubation at 18° C., 50 mg/mL ([3]; sodium deoxycholate 50 mg/mL, after 30 minutes incubation at 18° C.) | Solubility of sodium deoxycholate-containing formulations after 30 min incubation at 18° C., 100 mg/mL ([3]; sodium deoxycholate 100 mg/mL, after 30 minutes incubation at 18° C.)
< 2000 µg/mL: solubility at 30 min ([1]; aqueous with cosolvent or surfactant or cyclodextrin, 10% glycerol, read-out: Solubility of glycerol-containing formulations after 30 min incubation at 18° C., 10%) | solubility ([1]; aqueous with cosolvent or surfactant or cyclodextrin, 10% glycerol, overnight incubation at 18° C., read-out: Solubility of glycerol-containing formulations after overnight incubation at 18° C., 10%) | solubility at 30 min ([1]; aqueous with cosolvent or surfactant or cyclodextrin, 20% glycerol, read-out: Solubility of glycerol-containing formulations after 30 min incubation at 18° C., 20%) | solubility ([1]; aqueous with cosolvent or surfactant or cyclodextrin, 20% glycerol, overnight incubation at 18° C., read-out: Solubility of glycerol-containing formulations after overnight incubation at 18° C., 20%) | solubility at 30 min ([1]; aqueous with cosolvent or surfactant or cyclodextrin, 30% glycerol, read-out: Solubility of glycerol-containing formulations after 30 min incubation at 18° C., 30%) | solubility ([1]; aqueous with cosolvent or surfactant or cyclodextrin, 30% glycerol, overnight incubation at 18° C., read-out: Solubility of glycerol-containing formulations after overnight incubation at 18° C., 30%) | solubility at 30 min ([1]; aqueous with cosolvent or surfactant or cyclodextrin, 40% glycerol, read-out: Solubility of glycerol-containing formulations after 30 min incubation at 18° C., 40%) | solubility ([1]; aqueous with cosolvent or surfactant or cyclodextrin, 40% glycerol, overnight incubation at 18° C., read-out: Solubility of glycerol-containing formulations after overnight incubation at 18° C., 40%) | solubility at 30 min ([1]; 0% glycerol, read-out: Solubility of glycerol-containing formulations after 30 min incubation at 18° C., 0%) | solubility ([1]; 0% glycerol, overnight incubation at 18° C., read-out: Solubility of glycerol-containing formulations after overnight incubation at 18° C., 0%) | solubility at 30 s ([1]; aqueous with cosolvent or surfactant or cyclodextrin, 10% glycerol, read-out: Solubility of glycerol-containing formulations post vortexing, 10%) | solubility at 30 s ([1]; aqueous with cosolvent or surfactant or cyclodextrin, 20% glycerol, read-out: Solubility of glycerol-containing formulations post vortexing, 20%) | solubility at 30 s ([1]; aqueous with cosolvent or surfactant or cyclodextrin, 30% glycerol, read-out: Solubility of glycerol-containing formulations post vortexing, 30%) | solubility at 30 s ([1]; aqueous with cosolvent or surfactant or cyclodextrin, 40% glycerol, read-out: Solubility of glycerol-containing formulations post vortexing, 40%) | solubility at 30 s ([1]; 0% glycerol, read-out: Solubility of glycerol-containing formulations post vortexing, 0%) | solubility at 30 min ([2]; BSA 5 mg/mL, read-out: Solubility of BSA-containing formulations after 30 min incubation at 18° C., 5 mg/mL) | solubility at 30 min ([2]; BSA 10 mg/mL, read-out: Solubility of BSA-containing formulations after 30 min incubation at 18° C., 10 mg/mL) | solubility at 30 min ([2]; BSA 15 mg/mL, read-out: Solubility of BSA-containing formulations after 30 min incubation at 18° C., 15 mg/mL) | solubility at 30 s ([3]; sodium deoxycholate-containing formulation, aqueous with cosolvent or surfactant or cyclodextrin, sodium deoxycholate 12.5 mg/mL, read-out: Solubility of sodium deoxycholate-containing formulations post vortexing, 12.5 mg/mL) | solubility at 30 s ([3]; sodium deoxycholate-containing formulation, aqueous with cosolvent or surfactant or cyclodextrin, sodium deoxycholate 25 mg/mL, read-out: Solubility of sodium deoxycholate-containing formulations post vortexing, 25 mg/mL) | solubility at 30 s ([3]; sodium deoxycholate-containing formulation, aqueous with cosolvent or surfactant or cyclodextrin, sodium deoxycholate 50 mg/mL, read-out: Solubility of sodium deoxycholate-containing formulations post vortexing, 50 mg/mL) | solubility at 30 s ([3]; sodium deoxycholate-containing formulation, aqueous with cosolvent or surfactant or cyclodextrin, sodium deoxycholate 100 mg/mL, read-out: Solubility of sodium deoxycholate-containing formulations post vortexing, 100 mg/mL) | solubility at 30 min ([3]; sodium deoxycholate-containing formulation, aqueous with cosolvent or surfactant or cyclodextrin, sodium deoxycholate 12.5 mg/mL, after 30 minutes incubation at 18° C.) | solubility ([3]; sodium deoxycholate-containing formulation, aqueous with cosolvent or surfactant or cyclodextrin, sodium deoxycholate 12.5 mg/mL, overnight incubation at 18° C., read-out: Solubility of sodium deoxycholate-containing formulations after overnight incubation at 18° C., 12.5 mg/mL)
> 2000 µg/mL: solubility at 30 min ([1]; aqueous with cosolvent or surfactant or cyclodextrin, 50% glycerol, read-out: Solubility of glycerol-containing formulations after 30 min incubation at 18° C., 50%) | solubility at 30 s ([1]; aqueous with cosolvent or surfactant or cyclodextrin, 50% glycerol, read-out: Solubility of glycerol-containing formulations post vortexing, 50%) | solubility at 30 min ([2]; BSA 25 mg/mL, read-out: Solubility of BSA-containing formulations after 30 min incubation at 18° C., 25 mg/mL) | solubility at 30 min ([2]; BSA 80 mg/mL, read-out: Solubility of BSA-containing formulations after 30 min incubation at 18° C., 80 mg/mL) | solubility ([2]; BSA 80 mg/mL, overnight incubation at 18° C., read-out: Solubility of BSA-containing formulations after overnight incubation at 18° C., 80 mg/mL) | solubility at 30 min ([2]; BSA 100 mg/mL, read-out: Solubility of BSA-containing formulations after 30 min incubation at 18° C., 100 mg/mL) | solubility ([2]; BSA 100 mg/mL, overnight incubation at 18° C., read-out: Solubility of BSA-containing formulations after overnight incubation at 18° C., 100 mg/mL)
